Experimental data published in the NIST ThermoML archive (doi:10.1021/je800888n).
± gives the expanded uncertainty stated by the source.

Assays:
[1] = Liquid, Closed cell (Static) method
[2] = excess molar enthalpy (molar enthalpy of mixing); xn = mol fraction of the nth substance listed; details: 323.15 K, 101 kPa, Liquid, Flow calorimetry

CCCC(=O)O [butanoic acid]
[1]
Details | vapor or sublimation pressure [kPa]
273.15 K | 0.0137 ± 0.0017
283.15 K | 0.0324 ± 0.0036
293.15 K | 0.0725 ± 0.0077
293.29 K | 0.072 ± 0.0073
298.15 K | 0.1063 ± 0.011
298.25 K | 0.1052 ± 0.011
303.15 K | 0.1541 ± 0.016
303.28 K | 0.1545 ± 0.016
313.15 K | 0.3128 ± 0.007
313.22 K | 0.3155 ± 0.0045
323.15 K | 0.6084 ± 0.012
323.2 K | 0.6183 ± 0.0082
333.15 K | 1.138 ± 0.02
333.18 K | 1.153 ± 0.01
343.15 K | 2.055 ± 0.022
343.18 K | 2.073 ± 0.013
353.1 K | 3.582 ± 0.019
353.15 K | 3.593 ± 0.029
363.08 K | 5.973 ± 0.029
363.15 K | 6.095 ± 0.042

CCCC(=O)O [butanoic acid] + Cc1ccccc1
[2]
Details | excess molar enthalpy [kcal/mol]
x1 = 0.0289 | 0.00659 ± 0.00098
x1 = 0.0576 | 0.00663 ± 0.00098
x1 = 0.1144 | 0.00368 ± 0.00098
x1 = 0.1702 | -0.000361 ± 0.00098
x1 = 0.2251 | -0.00433 ± 0.00098
x1 = 0.2792 | -0.00731 ± 0.00098
x1 = 0.3325 | -0.0104 ± 0.00098
x1 = 0.3849 | -0.0129 ± 0.00098
x1 = 0.4366 | -0.0149 ± 0.001
x1 = 0.4874 | -0.0163 ± 0.001
x1 = 0.5375 | -0.0174 ± 0.001
x1 = 0.5869 | -0.0176 ± 0.001
x1 = 0.6355 | -0.0169 ± 0.001
x1 = 0.6834 | -0.0161 ± 0.001
x1 = 0.7306 | -0.0147 ± 0.001
x1 = 0.7771 | -0.013 ± 0.00098
x1 = 0.823 | -0.0107 ± 0.00098
x1 = 0.8682 | -0.00798 ± 0.00098
x1 = 0.9127 | -0.00545 ± 0.00098
x1 = 0.9567 | -0.00251 ± 0.00098
x1 = 0.9784 | -0.00114 ± 0.00098

Cc1ccccc1 [toluene]
[1]
Details | vapor or sublimation pressure [kPa]
253.83 K | 0.2392 ± 0.0036
263.64 K | 0.4837 ± 0.0065
273.15 K | 0.9082 ± 0.017
273.47 K | 0.9254 ± 0.012
283.15 K | 1.666 ± 0.021
283.32 K | 1.68 ± 0.012
293.15 K | 2.911 ± 0.025
293.24 K | 2.925 ± 0.017
293.26 K | 2.925 ± 0.017
298.15 K | 3.785 ± 0.03
298.25 K | 3.803 ± 0.02
303.15 K | 4.872 ± 0.035
303.23 K | 4.894 ± 0.025
313.15 K | 7.848 ± 0.049
313.19 K | 7.872 ± 0.037
313.22 K | 7.874 ± 0.037
323.15 K | 12.22 ± 0.071
323.22 K | 12.24 ± 0.056
333.15 K | 18.45 ± 0.1
333.2 K | 18.57 ± 0.083
343.15 K | 27.1 ± 0.15
343.16 K | 27.2 ± 0.12
353.13 K | 38.84 ± 0.17
353.15 K | 38.84 ± 0.2
363.08 K | 54.13 ± 0.24
363.15 K | 54.42 ± 0.28
